The series can be described thus: activity coefficient (dimensionless); of the first substance listed, at infinite dilution; xn = mol fraction of the nth substance listed. The note with it: 101 kPa, Liquid, Chromatography, x1 = 0.

Several values for one entry are separate records, joined by “and”; a condition that tells them apart may be missing. Identical values can stand only once. ± gives the expanded uncertainty stated by the source.

Consider `C=CCCCCC` [1-heptene] + CCCC[n+]1ccc(C)cc1.Cc1ccc(S(=O)(=O)[O-])cc1, for which the activity coefficient (328.15 K) is 28.7 and 29.2; the activity coefficient (333.15 K) is 29.5 and 28.2; the activity coefficient (338.15 K) is 27.2 and 27.9; the activity coefficient (343.15 K) is 28 and 27.5.

As for `C#CCCCCC` [1-heptyne] + CCCC[n+]1ccc(C)cc1.Cc1ccc(S(=O)(=O)[O-])cc1, the activity coefficient reads like this: (328.15 K) 5.76 and 5.88; (333.15 K) 6.03 and 5.9; (338.15 K) 6.01 and 5.98; (343.15 K) 6.14 and 6.

In the case of `C#CCCCC` [1-hexyne] + CCCC[n+]1ccc(C)cc1.Cc1ccc(S(=O)(=O)[O-])cc1, the activity coefficient is 4.25 and 4.19 (328.15 K); 4.43 and 4.26 (333.15 K); 4.37 and 4.61 (338.15 K); 4.8 and 4.36 (343.15 K).

Regarding `C#CCCCCCC` [1-octyne] + CCCC[n+]1ccc(C)cc1.Cc1ccc(S(=O)(=O)[O-])cc1, the activity coefficient was 8.01 and 8.11 (328.15 K); 8.45 and 8.13 (333.15 K); 8.27 and 8.18 (338.15 K); 8.56 and 8.3 (343.15 K).

`C=CCCC` [1-pentene] + CCCC[n+]1ccc(C)cc1.Cc1ccc(S(=O)(=O)[O-])cc1: the activity coefficient by setting is: (328.15 K) 16.8 and 15.3; (333.15 K) 16.1 and 14.8; (338.15 K) 15.3 and 15.5; (343.15 K) 15.7 and 14.2.

Take `C#CCCC` [1-pentyne] + CCCC[n+]1ccc(C)cc1.Cc1ccc(S(=O)(=O)[O-])cc1: the activity coefficient reads like this: (328.15 K) 3.05 and 3.09; (333.15 K) 3.37 and 3.06; (338.15 K) 3.36 and 3.2; (343.15 K) 3.38 and 3.41.

`c1ccccc1` [benzene] + CCCC[n+]1ccc(C)cc1.Cc1ccc(S(=O)(=O)[O-])cc1: the activity coefficient was 4.01 ± 0.18 (328.15 K); 3.92 and 4 (333.15 K); 3.97 and 3.95 (338.15 K); 3.94 and 3.97 (343.15 K).

Take `C1CCCCCC1` [cycloheptane] + CCCC[n+]1ccc(C)cc1.Cc1ccc(S(=O)(=O)[O-])cc1: the activity coefficient by setting is: (328.15 K) 21.2 and 23.4; (333.15 K) 20.8 ± 1; (338.15 K) 20 ± 0.9; (343.15 K) 19.8 and 19.9.

Consider `C1CCCCC1` [cyclohexane] + CCCC[n+]1ccc(C)cc1.Cc1ccc(S(=O)(=O)[O-])cc1, for which the activity coefficient by setting is: (328.15 K) 18.6 and 20.6; (333.15 K) 18 and 18.1; (338.15 K) 17.5 ± 0.8; (343.15 K) 16.9 and 17.

As for `C1CCCCCCC1` [cyclooctane] + CCCC[n+]1ccc(C)cc1.Cc1ccc(S(=O)(=O)[O-])cc1, the activity coefficient is 26.2 and 28.4 (328.15 K); 25.2 and 25 (333.15 K); 23.7 and 24.6 (338.15 K); 23.6 and 24.5 (343.15 K).

`C1CCCC1` [cyclopentane] + CCCC[n+]1ccc(C)cc1.Cc1ccc(S(=O)(=O)[O-])cc1: the activity coefficient is 13.6 and 12.5 (328.15 K); 12.4 and 12.8 (333.15 K); 11.7 and 12 (338.15 K); 11.9 and 11.7 (343.15 K).

On to `CCO` [ethanol] + CCCC[n+]1ccc(C)cc1.Cc1ccc(S(=O)(=O)[O-])cc1, for which the activity coefficient (328.15 K) is 0.905 and 0.893; the activity coefficient (333.15 K) was 0.895 and 0.881; the activity coefficient (338.15 K) was 0.88 and 0.87; the activity coefficient (343.15 K) was 0.871 and 0.863.

Consider `CCCCCCC` [heptane] + CCCC[n+]1ccc(C)cc1.Cc1ccc(S(=O)(=O)[O-])cc1, for which the activity coefficient is, setting by setting: (328.15 K) 53 and 55; (333.15 K) 51.8 and 51; (338.15 K) 50.6 and 50.4; (343.15 K) 49.3 and 49.5.

Regarding `C=CCCCC` [hex-1-ene] + CCCC[n+]1ccc(C)cc1.Cc1ccc(S(=O)(=O)[O-])cc1, the activity coefficient (328.15 K) is 21.2 and 21.1; the activity coefficient (333.15 K) is 20.7 and 20.1; the activity coefficient (338.15 K) is 20.3 and 19.5; the activity coefficient (343.15 K) is 20 and 20.1.

As to `CCCCCC` [hexane] + CCCC[n+]1ccc(C)cc1.Cc1ccc(S(=O)(=O)[O-])cc1, the activity coefficient (328.15 K) is 37.3 and 38.9; the activity coefficient (333.15 K) was determined as 37.2 ± 1.7; the activity coefficient (338.15 K) stood at 36 ± 1.7; the activity coefficient (343.15 K) was 36.9 and 37.1.

Take `CO` [methanol] + CCCC[n+]1ccc(C)cc1.Cc1ccc(S(=O)(=O)[O-])cc1: the activity coefficient was 0.555 and 0.542 (328.15 K); 0.545 and 0.542 (333.15 K); 0.541 and 0.536 (338.15 K); 0.548 and 0.527 (343.15 K).

Consider `C=CCCCCCC` [oct-1-ene] + CCCC[n+]1ccc(C)cc1.Cc1ccc(S(=O)(=O)[O-])cc1, for which the activity coefficient by setting is: (328.15 K) 39.7 and 40.6; (333.15 K) 39.7 and 39.2; (338.15 K) 38.7 and 38.9; (343.15 K) 37.8 and 38.

Turning to `CCCCCCCC` [octane] + CCCC[n+]1ccc(C)cc1.Cc1ccc(S(=O)(=O)[O-])cc1, the activity coefficient runs as follows: (328.15 K) 71.6 and 75.8; (333.15 K) 71.3 and 70.6; (338.15 K) 67.8 and 68.4; (343.15 K) 68.7 and 68.9.

`CCCCC` [pentane] + CCCC[n+]1ccc(C)cc1.Cc1ccc(S(=O)(=O)[O-])cc1: the activity coefficient reads like this: (328.15 K) 27.6 and 28.7; (333.15 K) 27.5 and 27.8; (338.15 K) 27.7 and 27.8; (343.15 K) 27.3 and 27.4.

Source of the values: the NIST ThermoML archive (doi:10.1016/j.fluid.2008.10.008).
